In patent publication US20070243137A1, “Cell and sub-cell methods for imaging and therapy” (priority 2006, published 2007):
“And” between values parts separate entries of the source, which are not always exact repeats. Equal entries are not always repeated.

Key:
[1] = in vivo; cited from earlier work
[2] = MRI imaging (1.5 Tesla, T1) of rat bearing subcutaneous F98 glioma tumor after intravenous injection; type: in vivo
Experimental: A male rat bearing a subcutaneous F98 glioma tumor in its thigh was anesthetized and a catheter inserted into the femoral vein. The animal was then placed in a 1.5 Tesla clinical MRI scanner with a head coil around it. T1 images were acquired before injection. The sample in example 2 was used without further purification, and an amount was injected, corresponding to a dose of 0.1 mmol Gd/kg, which is the recommended dose/weight for gadodiamide use in vivo. Images were acquired using both T1 and T2 modes. […] For comparison, a rat bearing a similar tumor was injected with 0.1 mmol gadodiamide/kg. […] Many of the smaller vesicles filtered through the kidneys, since at 30 min post injection not only was contrast seen in the urine in the bladder (as also seen with the gadodiamide only preparation), but high contrast was seen on the surface of the urine in the bladder. This may be explained by the lower density of the lipid-containing vesicles, allowing them to float on the surface. […] It should be noted that whatever the fate of the contrast agent is, only an FDA approved standard amount was injected, and should not cause any toxic effects.

[3] = abdominal aorta, 10 min after injection
[4] = hepatic portal vein, 10 min after injection
[5] = inferior vena cava, 10 min after injection

O=C([O-])CN(CCN(CC(=O)[O-])CC(=O)O)CCN(CC(=O)[O-])CC(=O)O.[Gd+3] [Gd-DTPA, gadolinium diethytriaminepentaacetic acid]
blood half-life [1]: ~20 min

CNC(=O)CN(CCN(CCN(CC(=O)[O-])CC(=O)NC)CC(=O)[O-])CC(=O)[O-].[Gd+3] [gadodiamide, Gadolinium diethylenetriaminepentaacetic acid bismethyl-amide]
blood half-life [1]: ~20 min
maximal tumor contrast relative to rat given vesicle-loaded gadodiamide ([2]; 0.1 mmol gadodiamide/kg, rat with similar tumor): approximately one-half
After injection (HU), tumor ([2]; F98 glioma tumor in thigh, 10 min after i.v. injection, 0.1 mmol Gd/kg): 828±82 HU and 828 HU
After injection (HU), Abdominal Aorta ([2]; abdominal aorta, 10 min after i.v. injection, 0.1 mmol Gd/kg): 627±76 HU and 627 HU
Contrast change (HU), Abdominal Aorta [2, 3]: 9 HU
Percent change, Abdominal Aorta [2, 3]: 1%
After injection (HU), Heart ([2]; heart, 10 min after i.v. injection, 0.1 mmol Gd/kg, T1): 540±137 HU and 540 HU
Contrast change (HU), Heart ([2]; heart, 10 min after injection): 91 HU
Percent change, Heart ([2]; heart, 10 min after injection): 20%
After injection (HU), hepatic portal vein ([2]; hepatic portal vein, 10 min after i.v. injection, 0.1 mmol Gd/kg): 774±47 HU and 774 HU
Contrast change (HU), hepatic portal vein [2, 4]: 96 HU
Percent change, hepatic portal vein [2, 4]: 14%
After injection (HU), Inferior vena cava ([2]; inferior vena cava, 10 min after i.v. injection, 0.1 mmol Gd/kg): 770±49 HU and 770 HU
Contrast change (HU), Inferior vena cava [2, 5]: 10 HU
Percent change, Inferior vena cava [2, 5]: 1%
After injection (HU), Kidney ([2]; kidney, 10 min after i.v. injection, 0.1 mmol Gd/kg): 1411±136 HU and 1411 HU
Contrast change (HU), Kidney ([2]; kidney, 10 min after injection): 848 HU
Percent change, Kidney ([2]; kidney, 10 min after injection): 151%
After injection (HU), Liver ([2]; liver, 10 min after i.v. injection, 0.1 mmol Gd/kg): 831±27 HU and 804±58 HU and 831 HU
Contrast change (HU), Liver ([2]; liver, 10 min after injection): 16 HU
Percent change, Liver ([2]; liver, 10 min after injection): 2%
vascular contrast in T1 mode ([2]; minutes after injection up to 20 minutes or more, 0.1 mmol/kg): not significantly contrasted
Contrast change (HU), tumor ([2]; tumor, 10 min after injection): 321 HU
Percent change, tumor ([2]; tumor, 10 min after injection): 63%
